Assay results reported in patent US5482954A, “Signal transduction inhibitor triazole and diazole compounds” (priority 1994, dated 1996).

Assays:
OVCAR3 cells = assay: Oral treatment of intraperitoneal xenografts; type: in vivo, nude mice
A2058 cells [1] = assay: Type IV collagen-stimulated motility; type: cell-based, human; details: data not shown
5R cells [2] = assay: Cell adhesion to tissue culture plastic; type: cell-based, rat; details: 0.03-10 μg/mL, 2 to 48 hr preincubation
Description: (§1) An adhesion assay was developed using tissue culture plastic petri dishes as the substrate. Aliquots of cells treated similarly to those in the cell motility assay were plated in triplicate onto the dishes and incubated for 90 rain at 37° C. Cells which were either poorly adherent or nonadherent were gently washed off with PBS. The remaining cells were stained with Diff Quik™ (from Baxter Scientific Products, McGaw Park. Ill., USA). Adherence was quantitated using laser densitometry and values were calculated as a percentage of the control adherence.
(§2) Cells were preincubated with compound 1 (0.03-10 μg/mL) for periods of 2 to 48 hr prior to the adhesion assay. In addition, compound 1 remained present during the assay. […] Maximal inhibition of adhesion was observed following overnight exposure of the cells to compound 1.

[3] = tested on: SKBR human breast cancer cells; assay: AMF-stimulated cell motility; type: cell-based; details: overnight exposure; data not shown
[4] = tested on: signal transduction pathways (calcium influx, release of arachidonic acid, generation of inositol phosphates); details: cited from earlier work
solid tumor metastasis = assay: Phase I clinical study, tumor response; type: in vivo, human
From the text: This example illustrates the effect of compound 1 on tumor growth and metastasis when administered orally to seven patients in an FDA approved phase I clinical study.
Seven patients with solid tumor metastasis are undergoing treatment via oral administration of compound 1 under the FDA approved phase I clinical study. Table J provides data on the patients' response to this treatment. PT# is patient number. Response is the sum of the products of bidirectional measurements. No measurement means that while the disease was evaluable, it was not measureable. The concentration of the drug in the blood of the patients is well within the range which inhibits signal transduction in vitro and which inhibits tumor growth in vitro and in animals.

CHOm5 cells = assay: Carbachol-stimulated generation of inositol phosphates; type: cell-based, Chinese hamster; details: concentrations above 10 μM
Description: This example illustrates the effect of compound 1 on the generation and release of phosphatidyl inositol from either A2058 cells (stimulated with autocrine motility factor) or CHOm5 cells (stimulated with carbachol).
A second assay utilized CHO cells which were transfected with and stably expressed the m5 subtype of the muscarinic acetylcholine receptor.
CHOm5 cells were incubated with [^3 H]inositol (0.5 μCi/well) for 18 to 24 hr. Before the addition of test compounds, the cells were washed twice with 250 μL of serum-free media supplemented with 20 mM HEPES and 10 mM lithium chloride. The test compounds were added in a final volume of 250 μL and the reaction was allowed to proceed for 15 min at 37° C. The reaction was stopped by the addition of 250 μL of an ice-cold solution containing 1M KOH, 18 mM Na2 B4 O7, 3.8 mM EDTA and 7.6 mM NaOH. The stop solution was neutralized immediately with the addition of 250 μL of a solution containing 7.5% HCl. Released inositol phosphates were separated by anion exchange chromatography.

cell adhesion to laminin = assay: Cell adhesion to laminin; type: cell-based; details: data not shown
Description: as §2

5R cells [5] = assay: Oral treatment, prevention of experimental metastasis; type: in vivo, nude mice
Description: Finally, compound 1 was tested for efficacy in prevention of the formation and growth of experimental metastases. Oral administration of compound 1 or PEG-400 vehicle to nude mice was carried out for 5 days. On day 6, untreated 5R cells (10^4) were introduced into the animals by tail vein inoculation. The animals were then randomized into four groups. Two groups of animals which had received only vehicle were subsequently treated with either vehicle (PEG/PEG) or 1 (PEG/1). The other two groups which had been treated with 1 were similarly treated post-inoculation with either vehicle (1/PEG) or 1 (1/1). Treatments were continued for 10 d, after which the lungs were removed and the pulmonary metastases were counted. Histologic confirmation of the fibrosarcoma due to the 5R cells was obtained. […] No toxicity was noted during treatment or at necropsy.

5R cells [6] = assay: [3H]thymidine incorporation; type: cell-based, rat; details: 0-10 μg/mL, 24 hr
Description: Proliferation: Two independent methods were used to determine the effect of various compounds on cellular proliferation. The first method utilized [^3 H]thymidine labelling and was performed using A2058, 5R, OVCAR3, and MDA-231 cells. Because the potential effect of compound 1 on thymidine metabolism was unknown, a clonogenic assay was also used. This assay utilized crystal violet nuclear staining.
For the thymidine incorporation assay, an initial aliquot of 15,000 cells was plated in 96 well plates. The cells were grown to subconfluence, serum-starved, then fed with serum-containing media to which incremental doses of compound 1 (0-10 μg/mL) were added. After 24 hr, the cells were pulsed with [^3 H]thymidine (0.5 μCi/well) for 2 hr. Trichloroacetic acid was added to precipitate […] [^3 H]thymidine. After removal, ice cold ethanol/diethyl ether was added to precipitate cellular nucleic acids. The residue was solubilized with 0.2M NaOH and [^3 H]thymidine incorporation was determined by liquid scintillation counting. Inhibition of thymidine uptake was calculated as a percent of untreated control cell incorporation of labelled thymidine. As FIG. 4 indicates, de novo DNA synthesis was inhibited in all of the tumor cell lines. Maximal inhibition (80%) was found with the 5R cells.

A2058 cells [7] = assay: Cell adhesion to tissue culture plastic; type: cell-based, human; details: 0.03-10 μg/mL, 2 to 48 hr preincubation
Description: as §1, §2

A2058 or 5R cells = assay: Cell spreading; type: cell-based
Description: as §2

[8] = patient 1, melanoma, 100 mg/m^2 qod
[9] = patient 2, colon, 100 mg/m^2 qd
[10] = patient 4, ovary, 100 mg/m^2 qd

NC(=O)c1nnn(Cc2cc(Cl)c(C(=O)c3ccc(Cl)cc3)c(Cl)c2)c1N [Compound 1]
time to development of ascites (OVCAR3 cells; 100 mg/kg daily oral): Statistically significant differences | tumor necrosis and pulmonary micrometastases (histology) (OVCAR3 cells; 100 mg/kg daily oral): induced tumor necrosis and inhibition of pulmonary micrometastases | volume of ascites at necropsy (OVCAR3 cells; 100 mg/kg daily oral): Statistically significant differences | progression of OVCAR3 xenografts (OVCAR3 cells; FIG. 16B, 100 mg/kg by gavage): inhibits progression of OVCAR3 xenografts | motility due to type IV collagen stimulation (A2058 cells [1]): inhibited motility | inhibition of cell adhesion (5R cells [2]): dose-dependent inhibition of cell adhesion | motile response to AMF [3]: inhibited | inhibition of selected signal transduction pathways [4]: novel inhibitor of selected signal transduction pathways | RESPONSE (solid tumor metastasis; [8]): Stable | RESPONSE (sum of products of bidirectional measurements) (solid tumor metastasis; [8]): +8% | inhibition of growth rate (cm^2 /day) (solid tumor metastasis; patient 1, metastasis lesion #1, X-ray): 79% | inhibition of growth rate (cm^2 /day) (solid tumor metastasis; patient 1, metastasis lesion #2, X-ray): 59% | suppression and regression of colon cancer metastases (solid tumor metastasis; patient 2): suppression and regression of 3 of 3 colon cancer metastases | RESPONSE (solid tumor metastasis; [9]): Stable | RESPONSE (sum of products of bidirectional measurements) (solid tumor metastasis; [9]): -22% | RESPONSE (solid tumor metastasis; patient 3, colon, 100 mg/m^2 qd): Stable | RESPONSE (solid tumor metastasis; [10]): Stable | RESPONSE (sum of products of bidirectional measurements) (solid tumor metastasis; [10]): -21% | RESPONSE (solid tumor metastasis; patient 5, lung, 200 mg/m^2 qod): Stable | RESPONSE (solid tumor metastasis; patient 6, carcinoid, 200 mg/m^2 qod): Stable | RESPONSE (solid tumor metastasis; patient 7, colon, 200 mg/m^2 qod): Progres- | inhibition of carbachol-stimulated generation of inositol phosphates (CHOm5 cells): partially inhibited | cell adhesion to laminin (cell adhesion to laminin): decreased cell adhesion | toxicity (5R cells [5]; during treatment or at necropsy): No toxicity | metastatic colonization (5R cells [5]; given prior to tumor cell injection): prevented metastatic colonization as effectively as when 1 was administered only after tumor cell inoculation or when given continuously | number of pulmonary metastases (5R cells [5]; treatment prior to, post, or prior to and post inoculation): statistically significantly inhibited | maximal inhibition of de novo DNA synthesis ([3H]thymidine incorporation) (5R cells [6]): 80% | inhibition of cell adhesion (A2058 cells [7]): dose-dependent inhibition of cell adhesion | cell spreading (A2058 or 5R cells): not markedly decreased
